In ChEMBL document CHEMBL5465560, “Selectivity Literature for EUbOPEN Chemogenomic Library” (2024):

Columns and labels:
[1] = biological target: T1, Inhibitor of nuclear factor kappa-B kinase subunit epsilon (Homo sapiens) (UniProt Q14164); assay: Selectivity interaction (KinomeScan (DiscoverX)) EUB0000655a IKBKE; details: at 10 µM
T1 sequence (whole entry): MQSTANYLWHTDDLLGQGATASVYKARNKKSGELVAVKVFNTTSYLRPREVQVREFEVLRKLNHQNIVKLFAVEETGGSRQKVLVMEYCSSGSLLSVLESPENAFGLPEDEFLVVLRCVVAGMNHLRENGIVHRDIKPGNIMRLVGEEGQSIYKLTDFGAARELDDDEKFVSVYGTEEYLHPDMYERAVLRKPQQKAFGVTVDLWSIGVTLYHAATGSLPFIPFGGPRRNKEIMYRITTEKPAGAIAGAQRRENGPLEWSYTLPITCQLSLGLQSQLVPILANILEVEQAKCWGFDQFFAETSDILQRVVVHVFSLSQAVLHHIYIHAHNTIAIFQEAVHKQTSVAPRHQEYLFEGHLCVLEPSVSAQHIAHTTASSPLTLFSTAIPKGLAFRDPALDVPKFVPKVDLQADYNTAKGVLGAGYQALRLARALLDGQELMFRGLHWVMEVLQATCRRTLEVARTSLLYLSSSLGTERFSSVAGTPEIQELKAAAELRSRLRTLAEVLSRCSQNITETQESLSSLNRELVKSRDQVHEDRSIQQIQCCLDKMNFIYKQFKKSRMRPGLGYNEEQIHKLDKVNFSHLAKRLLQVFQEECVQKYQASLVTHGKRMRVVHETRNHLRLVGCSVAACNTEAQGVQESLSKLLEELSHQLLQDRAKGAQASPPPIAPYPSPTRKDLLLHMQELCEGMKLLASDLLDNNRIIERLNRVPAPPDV

[2] = biological target: T2, Phosphatidylinositol 3-kinase C2 domain-containing subunit gamma (Homo sapiens) (UniProt O75747); details: at 10 µM
T2 sequence (whole entry): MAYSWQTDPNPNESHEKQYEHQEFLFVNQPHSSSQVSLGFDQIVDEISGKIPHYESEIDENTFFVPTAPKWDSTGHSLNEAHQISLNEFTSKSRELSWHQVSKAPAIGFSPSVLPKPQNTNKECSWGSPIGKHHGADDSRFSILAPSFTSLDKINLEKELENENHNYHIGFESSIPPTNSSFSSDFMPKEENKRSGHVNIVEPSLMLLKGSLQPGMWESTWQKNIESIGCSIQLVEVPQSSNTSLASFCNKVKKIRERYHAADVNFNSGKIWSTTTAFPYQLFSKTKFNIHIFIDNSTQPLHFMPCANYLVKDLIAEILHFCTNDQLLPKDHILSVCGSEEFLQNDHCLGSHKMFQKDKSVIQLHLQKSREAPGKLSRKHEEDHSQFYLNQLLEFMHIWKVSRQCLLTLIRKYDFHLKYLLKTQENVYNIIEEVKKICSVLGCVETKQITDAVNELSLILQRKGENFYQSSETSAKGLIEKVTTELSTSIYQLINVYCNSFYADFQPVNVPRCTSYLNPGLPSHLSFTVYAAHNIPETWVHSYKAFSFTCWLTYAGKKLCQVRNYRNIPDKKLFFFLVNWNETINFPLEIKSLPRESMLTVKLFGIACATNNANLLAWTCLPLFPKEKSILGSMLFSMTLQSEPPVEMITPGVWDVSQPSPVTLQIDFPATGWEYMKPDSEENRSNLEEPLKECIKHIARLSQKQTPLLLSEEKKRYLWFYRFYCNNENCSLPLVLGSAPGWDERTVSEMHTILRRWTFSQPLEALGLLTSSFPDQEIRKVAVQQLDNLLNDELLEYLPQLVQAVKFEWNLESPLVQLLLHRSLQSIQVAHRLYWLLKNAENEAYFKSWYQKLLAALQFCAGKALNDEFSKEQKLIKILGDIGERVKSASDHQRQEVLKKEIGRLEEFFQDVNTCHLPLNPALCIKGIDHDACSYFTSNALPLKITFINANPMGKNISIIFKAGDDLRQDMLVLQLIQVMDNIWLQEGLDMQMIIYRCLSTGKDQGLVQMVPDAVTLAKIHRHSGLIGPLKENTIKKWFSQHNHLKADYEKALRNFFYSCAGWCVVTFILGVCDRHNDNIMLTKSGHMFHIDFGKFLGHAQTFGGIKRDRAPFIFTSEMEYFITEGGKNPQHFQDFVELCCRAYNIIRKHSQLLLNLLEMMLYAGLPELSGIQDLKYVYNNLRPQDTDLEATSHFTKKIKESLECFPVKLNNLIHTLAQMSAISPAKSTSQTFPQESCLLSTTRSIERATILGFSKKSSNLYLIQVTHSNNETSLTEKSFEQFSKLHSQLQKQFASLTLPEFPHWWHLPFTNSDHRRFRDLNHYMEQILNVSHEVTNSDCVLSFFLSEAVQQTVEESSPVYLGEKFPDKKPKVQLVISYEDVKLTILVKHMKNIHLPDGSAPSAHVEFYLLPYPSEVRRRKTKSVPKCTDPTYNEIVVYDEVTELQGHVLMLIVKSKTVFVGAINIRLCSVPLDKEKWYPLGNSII

[3] = biological target: T3, Serine/threonine-protein kinase Sgk3 (Homo sapiens) (UniProt Q96BR1); assay: Selectivity interaction (ActivX KiNativ screen (ex vivo kinase selectivity in human PBMCs)) EUB0001619a SGK3; format: cell-based; details: PBMC, at 1 µM
T3 sequence (whole entry): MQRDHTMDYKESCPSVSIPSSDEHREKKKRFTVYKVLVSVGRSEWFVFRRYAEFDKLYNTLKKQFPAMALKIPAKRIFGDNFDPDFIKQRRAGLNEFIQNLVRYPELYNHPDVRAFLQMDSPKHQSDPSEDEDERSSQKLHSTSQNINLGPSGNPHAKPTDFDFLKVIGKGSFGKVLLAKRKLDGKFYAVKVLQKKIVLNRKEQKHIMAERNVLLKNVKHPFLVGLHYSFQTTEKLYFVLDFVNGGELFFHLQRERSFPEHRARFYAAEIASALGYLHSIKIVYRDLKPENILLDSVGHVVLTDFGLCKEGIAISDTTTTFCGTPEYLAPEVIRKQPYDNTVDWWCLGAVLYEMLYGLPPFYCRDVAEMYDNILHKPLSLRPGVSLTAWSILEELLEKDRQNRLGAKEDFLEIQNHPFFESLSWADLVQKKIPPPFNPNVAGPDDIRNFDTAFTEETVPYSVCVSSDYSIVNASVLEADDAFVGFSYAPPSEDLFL

Question: For `CN(C)CCOc1ccc(-c2nc(-c3ccncc3)c(-c3ccc4c(c3)CC/C4=N\O)[nH]2)cc1`, which % of control [1] is on record?
Answer: Its % of control is 85%.

Question: For `Cc1cc([C@@H](C)Nc2ccccc2C(=O)O)c2nc(N3CCOCC3)cc(=O)n2c1` [AZD-6482], which % of control [2] is on record?
Answer: The % of control was 7%.

Question: `N#Cc1cccc(-c2c[nH]c3ncnc(N4CCOCC4)c23)c1` was tested. Which % of inhibition [3] did it give?
Answer: The % of inhibition was -1%.
